Source: US20100041716A1, “[…] USE IN TREATING OR PREVENTING HYPERCHOLESTEROLEMIA” (MITOS PHARMACEUTICALS, INC., priority 2006, published 2010)

Assays:
[1] = tested on: lanosterol synthase (LSS); test: Gene expression in white adipose tissue of mice, Affymetrix MOE430A 2.0 microarray; format: in vivo
Protocol: (§1) In a gene expression study, Tempol was administered to experimental mice at a dose of 5 g/kg of diet from 12 months through 15 months. Mice receiving the same diet without the addition of Tempol were used as a negative control. At the age of 15 months, the white adipose tissue of the experimental animals was obtained. The expression of a broad spectrum of genes in the adipose tissue was assessed using chip-based microarray technology. Specifically, in this case an Affymetrix MOE430A 2.0 array, containing 12,960 genes, was employed. Such chips are well known in the art and are widely used to assess gene expression.

[2] = tested on: NAD(P) dependent steroid dehydrogenase-like (NSDHL); test: as above; format: in vivo
Protocol: as §1

[3] = tested on: farnesyl diphosphate synthase (FDPS); test: as above; format: in vivo
Protocol: as §1

LSS = test: Protein level in patient after Tempol treatment; format: in vivo, human; conditions: 1500 mg per day for 180 days
Protocol: (§2) A 70-kilogram patient having levels of fasting plasma total cholesterol indicative of hypercholesterolemia is administered a dose of 1500 mg of Tempol per day for 180 days. This may be administered in a single dose, or may be administered as a number of smaller doses over a 24-hour period: for example, three 500-mg doses at eight-hour intervals. Following treatment, the protein level of each of LSS, FDPS, and NSDHL is reduced.
as §2, with “at risk for developing” for “having levels of fasting plasma total cholesterol indicative of”

NSDHL = test: Protein level in patient after Tempol treatment; format: in vivo, human; conditions: 1500 mg per day for 180 days
Protocol: as §2
as §2, with “at risk for developing” for “having levels of fasting plasma total cholesterol indicative of”

FDPS = test: Protein level in patient after Tempol treatment; format: in vivo, human; conditions: 1500 mg per day for 180 days
Protocol: as §2
as §2, with “at risk for developing” for “having levels of fasting plasma total cholesterol indicative of”

[4] = adipose tissue of mice treated with Tempol
[5] = Example 1: 70-kilogram patient with hypercholesterolemia
[6] = Example 2: 70-kilogram patient at risk for hypercholesterolemia

`CC1(C)CC(O)CC(C)(C)N1[O]` [Tempol, 4-hydroxy-2,2,6,6-tetramethylpiperidine-1-oxyl] was tested, and the Fold change ([1]; LSS expression, Tempol-treated vs control mice, white adipose tissue) was −2.33, the “Mean (Tempol-treated mice)” value ([1]; LSS expression, white adipose tissue, 5 g/kg of diet from 12 through 15 months) was 224 and the “expression of LSS decreased” value [1, 4] was 2.33 fold. For the same compound, the Fold change ([2]; NSDHL expression, Tempol-treated vs control mice, white adipose tissue) was −1.64, the “Mean (Tempol-treated mice)” value ([2]; NSDHL expression, white adipose tissue, 5 g/kg of diet from 12 through 15 months) was 1398 and the “expression of NSHDL decreased” value [2, 4] was 1.64 fold. For the same compound, the Fold change ([3]; FDPS expression, Tempol-treated vs control mice, white adipose tissue) was −2.08, the “Mean (Tempol-treated mice)” value ([3]; FDPS expression, white adipose tissue, 5 g/kg of diet from 12 through 15 months) was 1274 and the “expression of FDPS decreased” value [3, 4] was 2.08 fold. For the same compound, the “protein level of LSS” value (LSS; [5]) was “reduced”, the “protein level of LSS” value (LSS; [6]) was “reduced” and the “protein level of NSDHL” value (NSDHL; [5]) was “reduced”. The “protein level of NSDHL” value (NSDHL; [6]) was “reduced”, the “protein level of FDPS” value (FDPS; [5]) was “reduced” and the “protein level of FDPS” value (FDPS; [6]) was “reduced”.
